In US20100210649A1, “PYRIDAZINONES AND FURAN-CONTAINING COMPOUNDS” (Sloan-Kettering Institute for Cancer Research, priority 2006, published 2010):
Like-named read-outs stand apart in the source and are kept apart here.

Experiments:
Type in all cases: cell-based, human
[1] = tested on: H3255; test: Non Small Cell Lung Cancer proliferation assay (Alamar Blue reduction), H3255; conditions: Homo sapiens, NCI-H3255, primary screening, 10 μM compound in 1% DMSO (v/v)
Description: (§1) These cells have a doubling time of 1-2 days. All cell types are adherent and grow in colonies. The cells should be kept at a density between 50,000 cells/mL -500,000 cells/mL to provide for optimum growth and adequate nutrition. The cell line should be maintained at 37° C. in a humidified atmosphere with 5% CO2 in a sterile cell culture incubator.
(§2) Non Small Cell Lung Cancer Proliferation Assay.
(§3) High Controls for this assay are made by treating Non Small Cell Lung Cancer cells with 5 ul of 10% DMSO. [Final concentration in this assay is 1% DMSO].
(§4) Important Note: All compounds for testing in this assay should be done at the final concentration of 1% DMSO.
(§5) After addition, the cells are placed in cell culture incubator at 37° C. for 48 hours for complete treatment.
(§6) After drug treatment, cytotoxicity is measured by Alamar Blue reduction.
(§7) The cells are incubated for 48 hours at 37° C. to complete the Alamar Blue reduction.
(§8) The final step in the assay is to measure the amount of Alamar Blue reduction. […] The Alamar Blue fluorescence is measured at an excitation of 530 nm and emission of 590 nm.
(§9) For the NSCLC project, the cell based assay was screened against a small molecule library of approximately 200,000 compounds. The compound library is stored in our automated robotic freezer (Biophile) at −20° C. in 100% DMSO. Compound freeze and thaw cycles are kept to a minimum. […] This assay was performed on a fully automated linear track robotic platform (CRS F3 Robot System, Thermo Electron Corp., Ontario, Canada) utilizing several integrated peripherals for plate handling, liquid dispensing, and readout detection. […] The microplates are then placed at 37° C. for 48 hours to complete treatment of cells with compounds. Next, 5 ul of alamar blue was added using a liquid dispenser (Flexprop Precision Dispenser, Perkin Elmer, Mass., USA) and incubated for 48 hours at 37° C. The alamar blue prompt fluorescence was measured on Victor V (Victor^3 V, Perkin Elmer, Mass., USA) and output data files were loaded into ORIS (Oncology Research Informatics System, MSKCC, NY, USA), a screening data acquisition and analysis platform.
(§10) The dose response studies were done with the following standard procedure. First, the cells were counted and dispensed at 250 cells/well into 384-well microplates with compound. The cells were incubated for 48 hours at 37 C to complete treatment, and then alamar blue was added for an additional 48 hours. Finally, alamar blue reduction was measured and the data was loaded into ORIS, our data screening acquisition platform.

[2] = tested on: H1975; test: Non Small Cell Lung Cancer proliferation assay (Alamar Blue reduction), H1975; conditions: Homo sapiens, NCI-H1975, primary screening, 10 μM compound in 1% DMSO (v/v)
Description: as §1, §2, §3, §4, §5, §6, §7, §8, §9, §10

[3] = tested on: H2030; test: Non Small Cell Lung Cancer proliferation assay (Alamar Blue reduction), H2030; conditions: Homo sapiens, NCI-H2030, primary screening, 10 μM compound in 1% DMSO (v/v)
Description: as §1, §2, §3, §4, §5, §6, §7, §8, §9, §10

[4] = tested on: H1650; test: Non Small Cell Lung Cancer proliferation assay (Alamar Blue reduction), H1650; conditions: Homo sapiens, NCI-H1650, primary screening, 10 μM compound in 1% DMSO (v/v)
Description: as §1, §2, §3, §4, §5, §6, §7, §8, §9, §10

[5] = H3255, read-out: PRIMARY HTS [%] H3255 (percentage inhibition)
[6] = H1975, read-out: PRIMARY HTS [%] H1975 (percentage inhibition)
[7] = H2030, read-out: PRIMARY HTS [%] H2030 (percentage inhibition)
[8] = H1650, read-out: PRIMARY HTS [%] H1650 (percentage inhibition)
[9] = read-out: percentage inhibition H3255
[10] = read-out: percentage inhibition H1975
[11] = read-out: percentage inhibition H2030
[12] = read-out: percentage inhibition H1650

Compound | inhibition at 10 µM [1, 5] [%] | inhibition at 10 µM [2, 6] [%] | inhibition at 10 µM [3, 7] [%] | inhibition at 10 µM [4, 8] [%] | inhibition at 10 µM [1, 9] [%] | inhibition at 10 µM [2, 10] [%] | inhibition at 10 µM [3, 11] [%] | inhibition at 10 µM [4, 12] [%]
O=C(Nc1ccc(NC(=O)c2ccco2)c(O)c1)c1ccccc1 [compound 76839] | 2 | 3 | -6 | 20 | – | – | – | –
COc1cnn(-c2ccccc2)c(=O)c1S [compound 187118] | – | – | – | – | 108 | 96 | 7 | 101
CN(C)c1c(Cl)cnn(-c2ccccc2)c1=O [compound 103911] | – | – | – | – | -3 | -12 | -5 | -7
Cc1ccc(-n2ncc(SCc3ccccc3)c(Cl)c2=O)cc1 [compound 182830] | – | – | – | – | -4 | 10 | 3 | 20
Cc1cccc(-n2nc(C(=O)c3ccco3)cc(-c3nc4ccccc4[nH]3)c2=N)c1 [compound 181802] | – | – | – | – | 27 | 14 | -5 | -2
O=c1c(N2CCCC2)c(Cl)cnn1-c1ccccc1 [compound 104304] | – | – | – | – | 107 | 98 | 14 | 52
O=c1ccc(Cl)nn1-c1ccc(Br)cc1 [compound 222922] | – | – | – | – | -7 | 3 | -30 | -20
O=C(Nc1c(Cl)cccc1Cl)c1cc2ccccc2o1 [compound 60998] | 1 | 19 | 1 | 10 | – | – | – | –
COc1cnn(-c2ccccc2)c(=O)c1SCc1ccc(Cl)cc1Cl [compound 208701] | – | – | – | – | 7 | -25 | 7 | -4
O=c1c(SCc2ccccc2)c(SCc2ccccc2)cnn1-c1ccc(Br)cc1 [compound 208699] | – | – | – | – | 19 | -22 | 10 | -12
COc1cnn(-c2cccc(C)c2)c(=O)c1Cl [compound 104325] | – | – | – | – | 4 | -12 | 2 | -31
Cc1cc(Cl)ccc1NC(=O)CN1CCN(C(=O)c2ccco2)CC1 [compound 83809] | 2 | -10 | 2 | 22 | – | – | – | –
O=c1c(SCc2ccccc2)c(N2CCCCC2)cnn1-c1ccccc1 [compound 195989] | – | – | – | – | -27 | 35 | 6 | 21
CCCCSc1cnn(-c2ccccc2)c(=O)c1SCCCC [compound 224766] | – | – | – | – | 24 | -29 | 95 | -12
COc1cnn(-c2ccc([N+](=O)[O-])cc2)c(=O)c1Cl [compound 104339] | – | – | – | – | 3 | -9 | -3 | -21
O=C(COc1cnn(-c2ccccc2)c(=O)c1Cl)c1ccc(Br)cc1 [compound 176702] | – | – | – | – | -21 | 26 | -14 | 29
O=c1c(Cl)c(Cl)c(O)nn1-c1ccccc1 [compound 103751] | – | – | – | – | 0 | -4 | -4 | 6
